Test results from ChEMBL document CHEMBL1122801, “Nontricyclic antidepressant agents derived from cis- and trans-1-amino-4-aryltetralins” (J Med Chem, 1984).
Structures can show the parent of a compound that is named as a salt.

Experiments:
[1] = biological target: Sodium-dependent dopamine transporter (Rattus norvegicus, UniProt P23977); assay: Inhibition of dopamine uptake in synaptosomal preparation in rat corpus striatum, using [3H]dopamine; type: functional, tissue-based
[2] = biological target: Norepinephrine transporter (Rattus norvegicus, UniProt Q9WTR4); assay: Inhibition of norepinephrine uptake in synaptosomal preparation fro rat hypothalamus, using [3H]norepinephrine; type: functional, tissue-based
Chain of Norepinephrine transporter (Q9WTR4 whole entry): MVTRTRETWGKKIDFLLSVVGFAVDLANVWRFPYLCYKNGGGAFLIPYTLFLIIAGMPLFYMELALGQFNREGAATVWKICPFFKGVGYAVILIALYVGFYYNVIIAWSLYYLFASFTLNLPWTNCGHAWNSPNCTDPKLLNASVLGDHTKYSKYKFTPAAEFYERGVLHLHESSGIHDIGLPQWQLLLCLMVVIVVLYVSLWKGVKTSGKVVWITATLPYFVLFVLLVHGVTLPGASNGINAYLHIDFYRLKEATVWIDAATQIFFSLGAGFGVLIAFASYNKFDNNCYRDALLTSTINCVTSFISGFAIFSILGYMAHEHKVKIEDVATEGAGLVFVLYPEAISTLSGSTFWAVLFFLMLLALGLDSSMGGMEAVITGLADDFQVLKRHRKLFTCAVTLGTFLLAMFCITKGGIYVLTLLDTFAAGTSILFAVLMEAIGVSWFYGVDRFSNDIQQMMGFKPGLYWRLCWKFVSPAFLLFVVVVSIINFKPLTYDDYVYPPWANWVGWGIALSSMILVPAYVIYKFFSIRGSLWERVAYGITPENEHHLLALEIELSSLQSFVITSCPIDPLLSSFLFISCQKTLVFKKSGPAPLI

Chain of Sodium-dependent dopamine transporter (P23977 whole entry): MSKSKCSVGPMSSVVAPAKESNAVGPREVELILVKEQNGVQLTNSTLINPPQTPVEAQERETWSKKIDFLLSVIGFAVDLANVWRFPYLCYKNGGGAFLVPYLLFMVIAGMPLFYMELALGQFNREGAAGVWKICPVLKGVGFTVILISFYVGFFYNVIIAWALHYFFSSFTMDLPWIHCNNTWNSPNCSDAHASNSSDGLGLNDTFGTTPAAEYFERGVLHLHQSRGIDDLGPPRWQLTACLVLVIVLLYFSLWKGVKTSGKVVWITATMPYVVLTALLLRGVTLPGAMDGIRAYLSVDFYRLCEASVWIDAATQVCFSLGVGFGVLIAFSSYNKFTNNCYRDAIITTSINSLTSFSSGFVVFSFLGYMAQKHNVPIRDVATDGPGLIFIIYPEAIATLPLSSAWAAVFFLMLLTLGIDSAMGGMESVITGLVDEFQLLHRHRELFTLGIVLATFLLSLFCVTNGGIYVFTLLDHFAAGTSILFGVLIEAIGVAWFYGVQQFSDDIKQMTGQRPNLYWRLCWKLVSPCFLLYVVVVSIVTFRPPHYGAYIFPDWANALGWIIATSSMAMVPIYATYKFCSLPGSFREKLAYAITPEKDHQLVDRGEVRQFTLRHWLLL

| Structure (SMILES) | IC50 [1] [µM] | IC50 [2] [µM] |
| --- | --- | --- |
| CN[C@@H]1CC[C@@H](c2ccc(F)cc2)c2ccccc21 | 0.22 | 0.03 |
| CN(C)[C@@H]1CC[C@@H](c2ccc(Cl)c(Cl)c2)c2ccccc21 | 0.17 | – |
| CN[C@H]1CC[C@@H](c2ccc(F)cc2)c2ccccc21 | 4.7 | 2.3 |
| CN[C@H]1CC[C@@H](c2ccc(Oc3ccccc3)cc2)c2ccccc21 | 6.8 | 3.9 |
| CN[C@H]1CC[C@@H](c2ccc(OC)cc2)c2ccccc21 | 4.2 | 3 |
| CN[C@@H]1CC[C@@H](c2ccc(C(F)(F)F)cc2)c2ccccc21 | 4.4 | 0.69 |
| CN[C@@H]1CC[C@@H](c2ccc(OC)cc2)c2ccccc21 | 0.4 | 0.15 |
| CN[C@H]1CC[C@@H](c2cccc(OC)c2)c2ccccc21 | 5 | 1.4 |
| CN[C@H]1CC[C@@H](c2ccccc2OC)c2ccccc21 | 11.2 | 2.3 |
| CN[C@@H]1CC[C@@H](c2cccc(OC)c2)c2ccccc21 | 0.53 | 0.06 |
| CN[C@@H]1CC[C@@H](c2ccc(Br)cc2)c2ccccc21 | 0.08 | 0.03 |
| CCCCOc1ccc([C@@H]2CC[C@@H](NC)c3ccccc32)cc1 | – | 1.15 |
| CN[C@@H]1CC[C@@H](c2ccccc2OC)c2ccccc21 | 5.7 | 0.48 |
| CN[C@@H]1CC[C@@H](c2ccc(Cl)cc2Cl)c2ccccc21 | 6.1 | – |
| CN(C)[C@@H]1CC[C@@H](c2ccccc2)c2ccccc21 | 0.84 | 0.14 |
| CN(C)[C@@H]1CC[C@@H](c2ccc(Cl)cc2)c2ccccc21 | 0.38 | 0.13 |
| CN[C@@H]1CC[C@@H](c2ccc(Cl)c(C(F)(F)F)c2)c2ccccc21 | 7.3 | – |
| N[C@H]1CC[C@@H](c2ccc(C(F)(F)F)cc2)c2ccccc21 | 10 | 7.5 |
| N[C@H]1CC[C@@H](c2cccc(C(F)(F)F)c2)c2ccccc21 | 4.7 | 3.5 |
| N[C@H]1CC[C@@H](c2ccc(Cl)c(Cl)c2)c2ccccc21 | 1.25 | 0.25 |
| CN[C@H]1CC[C@@H](c2ccc(Br)cc2)c2ccccc21 | 1.6 | 1.4 |
| CN[C@H]1CC[C@@H](c2ccc(F)c(OC)c2)c2ccccc21 | 0.85 | 3.3 |
| CCCCOc1ccc([C@@H]2CC[C@H](NC)c3ccccc32)cc1 | – | 0.94 |
| CN[C@@H]1CC[C@@H](c2ccc(Oc3ccccc3)cc2)c2ccccc21 | 8.4 | 2.3 |
| CN(C)[C@H]1CC[C@@H](c2ccc(Cl)cc2)c2ccccc21 | 5.6 | 1.16 |
| CN(C)[C@H]1CC[C@@H](c2ccccc2)c2ccccc21 | 10 | 0.31 |

| Structure (SMILES) | IC50 [1] [µM] | IC50 [2] [µM] |
| --- | --- | --- |
| CN[C@H]1CC[C@@H](c2ccc(Cl)cc2Cl)c2ccccc21 | 1.7 | – |
| CN[C@H]1CC[C@@H](c2ccc(Cl)c(C(F)(F)F)c2)c2ccccc21 | 1.5 | – |
| CN[C@H]1CC[C@@H](c2ccccc2)c2ccccc21 | 5.1 | 1.86 |
| CN[C@H]1CC[C@@H](c2cccc(C(F)(F)F)c2)c2ccccc21 | 2.54 | 2.55 |
| CN[C@H]1CC[C@@H](c2ccc(C(F)(F)F)cc2)c2ccccc21 | 7.8 | 9.8 |
| CN[C@@H]1CC[C@@H](c2ccc(F)c(OC)c2)c2ccccc21 | 1.2 | 0.34 |
| CN(C)[C@@H]1CC[C@@H](c2cccc(C(F)(F)F)c2)c2ccccc21 | 6.1 | 1.4 |
| CN(C)[C@@H]1CC[C@@H](c2ccc(C(F)(F)F)cc2)c2ccccc21 | 9.8 | 4.7 |
| CN(C)[C@H]1CC[C@@H](c2ccc(Cl)c(Cl)c2)c2ccccc21 | 2 | – |
| CN(C)[C@H]1CC[C@@H](c2cccc(C(F)(F)F)c2)c2ccccc21 | 7 | 0.89 |
| CN[C@@H]1CC[C@@H](c2cccc(C(F)(F)F)c2)c2ccccc21 | 2.6 | 0.26 |
| CN(C)[C@H]1CC[C@@H](c2ccc(C(F)(F)F)cc2)c2ccccc21 | 12.2 | 14.2 |
| CN[C@@H]1CC[C@@H](c2ccccc2)c2ccccc21 (stereo in doubt; 44) [TAMETRALINE] | 0.15 | 0.018 |
| CN[C@@H]1CC[C@@H](c2ccccc2)c2ccccc21 (stereo in doubt; 45) [TAMETRALINE] | 1.4 | 0.37 |
| CN[C@H]1CC[C@@H](c2ccccc2)c2ccccc21 (stereo in doubt; 50) | 5.5 | 1.8 |
| CN[C@H]1CC[C@@H](c2ccccc2)c2ccccc21 (stereo in doubt; 51) | 10.2 | 4.2 |
| CN[C@H]1CC[C@@H](c2ccc(C(F)(F)F)cc2)c2ccccc21 (stereo in doubt; 54) | 6.4 | 9.4 |
| CN[C@H]1CC[C@@H](c2ccc(C(F)(F)F)cc2)c2ccccc21 (stereo in doubt; 55) | 5.6 | 12 |
| CN[C@H]1CC[C@@H](c2cccc(C(F)(F)F)c2)c2ccccc21 (stereo in doubt; 56) | 9.7 | 2.7 |
| CN[C@H]1CC[C@@H](c2cccc(C(F)(F)F)c2)c2ccccc21 (stereo in doubt; 57) | 2.5 | 7.8 |
| CN[C@H]1CC[C@@H](c2ccc(Cl)c(C(F)(F)F)c2)c2ccccc21 (stereo in doubt; 60) | 6.2 | – |
| CN[C@H]1CC[C@@H](c2ccc(Cl)c(C(F)(F)F)c2)c2ccccc21 (stereo in doubt; 61) | 0.49 | – |
| COCCCC/C(=N\OCCN)c1ccc(C(F)(F)F)cc1 [FLUVOXAMINE] | 45 | 1.9 |
| CN1Cc2c(N)cccc2C(c2ccccc2)C1 (configuration not stated) [NOMIFENSINE] | – | 0.02 |
| CN[C@@H]1CC[C@@H](c2ccccc2)c2ccccc21 [TAMETRALINE HYDROCHLORIDE] | 0.21 | 0.04 |
| CN(C)C/C=C(/c1ccc(Br)cc1)c1cccnc1 [ZIMELDINE] | 43 | – |
